Target: GST-Bcl-2 (Homo sapiens, UniProt P10415)
Test: Time Resolved-Fluorescence Resonance Energy Transfer (TR-FRET) Bcl-2 binding assay
Conditions: GST-Bcl-2 1 nM, F-Bak peptide probe 100 nM, Tb-anti-GST 1 nM; 3 hours at room temperature; Ki by Wang's equation
Procedure: Determination of the utility of compounds having Formula (I) as binders to and inhibitors of anti-apoptotic Bcl-2 proteins was performed using the Time Resolved-Fluorescence Resonance Energy Transfer (TR-FRET) Assay. Tb-anti-GST antibody was purchased from Invitrogen (Catalog No. PV4216).
Representative compounds were serially diluted in dimethyl sulfoxide (DMSO) starting at 50 μM (2x starting concentration; 10% DMSO) and 10 μL were transferred into a 384-well plate. The samples are then mixed on a shaker for 1 minute and incubated for an additional 3 hours at room temperature. For each assay, the probe/antibody and protein/probe/antibody were included on each assay plate as negative and positive controls, respectively. Fluorescence was measured on the ENVISION plate reader (Perkin Elmer) using a 340/35 nm excitation filter and 520/525 (F-Bak peptide) and 495/510 nm (Tb-labeled […] antibody) emission filters. Inhibition constants (Ki) are shown in TABLE 2 below and were determined using Wang's equation (Wang Z.-X. An Exact Mathematical Expression For Describing Competitive Binding Of Two Different Ligands To A Protein Molecule. FEBS Lett. 1995, 360:111-4).
The inhibition constant (Ki) is the dissociation constant of an enzyme-inhibitor complex or a protein/small molecule complex, wherein the small molecule is inhibiting binding of one protein to another protein. So a large Ki value indicates a low binding affinity and a small Ki value indicates a high binding affinity.
The compounds are therefore expected to have utility in treatment of diseases during which anti-apoptotic Bcl-2 protein is expressed.

GST-Bcl-2, sequence (P10415 whole entry): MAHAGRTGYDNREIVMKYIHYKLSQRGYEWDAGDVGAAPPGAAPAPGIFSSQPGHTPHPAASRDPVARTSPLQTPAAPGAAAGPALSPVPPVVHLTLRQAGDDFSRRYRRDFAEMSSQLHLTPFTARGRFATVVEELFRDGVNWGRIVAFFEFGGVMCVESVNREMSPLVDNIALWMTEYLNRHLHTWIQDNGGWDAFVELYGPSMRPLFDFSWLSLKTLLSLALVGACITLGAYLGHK

**Q.** `O=C(NS(=O)(=O)c1cccc([N+](=O)[O-])c1)c1ccc(N2CCN(Cc3ccccc3-c3ccc(Cl)cc3)CC2)cc1[S+]([O-])c1ccccc1` (centres unmarked) [Example 21, 4-{4-[(4′-chloro-1,1′-biphenyl-2-yl)methyl]piperazin-1-yl}-N-[(3-nitrophenyl)sulfonyl]-2-(phenylsulfinyl)benzamide] was tested. Which Ki did it give?
**A.** 87.3 nM

**Q.** How did the Ki turn out when `O=C(NS(=O)(=O)c1ccc([N+](=O)[O-])cc1)c1ccc(N2CCN(Cc3ccccc3-c3ccc(Cl)cc3)CC2)cc1Oc1ccccc1` [Example 22, 4-{4-[(4′-chloro-1,1′-biphenyl-2-yl)methyl]piperazin-1-yl}-N-[(4-nitrophenyl)sulfonyl]-2-phenoxybenzamide] was run?
**A.** 17.3 nM

**Q.** For `O=C(NS(=O)(=O)c1cccc(F)c1)c1ccc(N2CCN(Cc3ccccc3-c3ccc(Cl)cc3)CC2)cc1Oc1ccccc1` [Example 23, 4-{4-[(4′-chloro-1,1′-biphenyl-2-yl)methyl]piperazin-1-yl}-N-[(3-fluorophenyl)sulfonyl]-2-phenoxybenzamide], which Ki is on record?
**A.** 27.3 nM

**Q.** With `O=C(NS(=O)(=O)c1ccc(F)cc1)c1ccc(N2CCN(Cc3ccccc3-c3ccc(Cl)cc3)CC2)cc1Oc1ccccc1` [Example 24, 4-{4-[(4′-chloro-1,1′-biphenyl-2-yl)methyl]piperazin-1-yl}-N-[(4-fluorophenyl)sulfonyl]-2-phenoxybenzamide] as the compound, how does the Ki read?
**A.** 10.3 nM

**Q.** `O=C(NS(=O)(=O)c1cccc([N+](=O)[O-])c1)c1ccc(N2CCN(Cc3ccccc3-c3ccc(Cl)cc3)CC2)cc1S(=O)(=O)c1ccccc1` [Example 26, 4-{4-[(4′-chloro-1,1′-biphenyl-2-yl)methyl]piperazin-1-yl}-N-[(3-nitrophenyl)sulfonyl]-2-(phenylsulfonyl)benzamide] was tested. Which Ki did it give?
**A.** 627 nM

**Q.** How did the Ki turn out when `O=C(NS(=O)(=O)c1ccc(Cl)c([N+](=O)[O-])c1)c1ccc(N2CCN(Cc3ccccc3-c3ccc(Cl)cc3)CC2)cc1Oc1ccccc1` [Example 27, 4-{4-[(4′-chloro-1,1′-biphenyl-2-yl)methyl]piperazin-1-yl}-N-[(4-chloro-3-nitrophenyl)sulfonyl]-2-phenoxybenzamide] was run?
**A.** 4.16 nM

**Q.** With `CN(C)CCOc1cccc(-c2ccc(Cl)cc2)c1CN1CCN(c2ccc(C(=O)NS(=O)(=O)c3cccc([N+](=O)[O-])c3)c(Oc3cccc4[nH]ccc34)c2)CC1` [Example 28, 4-[4-({4′-chloro-3-[2-(dimethylamino)ethoxy]-1,1′-biphenyl-2-yl}methyl)piperazin-1-yl]-2-(1H-indol-4-yloxy)-N-[(3-nitrophenyl)sulfonyl]benzamide] as the compound, how does the Ki read?
**A.** 0.125 nM

**Q.** `CN(C)CCOc1cccc(-c2ccc(Cl)cc2)c1CN1CCN(c2ccc(C(=O)NS(=O)(=O)c3ccccc3)c(Oc3cccc4[nH]ccc34)c2)CC1` [Example 29, 4-[4-({4′-chloro-3-[2-(dimethylamino)ethoxy]-1,1′-biphenyl-2-yl}methyl)piperazin-1-yl]-2-(1H-indol-4-yloxy)-N-(phenylsulfonyl)benzamide] was tested. Which Ki did it give?
**A.** 2.27 nM

**Q.** Which Ki does the source give for `CC1(C)CCC(CN2CCN(c3ccc(C(=O)NS(=O)(=O)c4cccc([N+](=O)[O-])c4)c(Oc4ccc5[nH]ccc5c4)c3)CC2)=C(c2ccc(Cl)cc2)C1` [Example 30, 4-(4-{[2-(4-chlorophenyl)-4,4-dimethylcyclohex-1-en-1-yl]methyl}piperazin-1-yl)-2-(1H-indol-5-yloxy)-N-[(3-nitrophenyl)sulfonyl]benzamide] here?
**A.** 0.209 nM

**Q.** `CC1(C)CCC(CN2CCN(c3ccc(C(=O)NS(=O)(=O)c4ccccc4)c(Oc4ccc5[nH]ccc5c4)c3)CC2)=C(c2ccc(Cl)cc2)C1` [Example 31, 4-(4-{[2-(4-chlorophenyl)-4,4-dimethylcyclohex-1-en-1-yl]methyl}piperazin-1-yl)-2-(1H-indol-5-yloxy)-N-(phenylsulfonyl)benzamide] was tested. Which Ki did it give?
**A.** 21.6 nM

**Q.** How did the Ki turn out when `CC1(C)CCC(CN2CCN(c3ccc(C(=O)NS(=O)(=O)c4cccc(C#N)c4)c(Oc4ccc5[nH]ccc5c4)c3)CC2)=C(c2ccc(Cl)cc2)C1` [Example 32, 4-(4-{[2-(4-chlorophenyl)-4,4-dimethylcyclohex-1-en-1-yl]methyl}piperazin-1-yl)-N-[(3-cyanophenyl)sulfonyl]-2-(1H-indol-5-yloxy)benzamide] was run?
**A.** 5.94 nM

**Q.** How did the Ki turn out when `CC1(C)CCC(CN2CCN(c3ccc(C(=O)NS(=O)(=O)c4cccc(C(F)(F)F)c4)c(Oc4ccc5[nH]ccc5c4)c3)CC2)=C(c2ccc(Cl)cc2)C1` [Example 33, 4-(4-{[2-(4-chlorophenyl)-4,4-dimethylcyclohex-1-en-1-yl]methyl}piperazin-1-yl)-2-(1H-indol-5-yloxy)-N-{[3-(trifluoromethyl)phenyl]sulfonyl}benzamide] was run?
**A.** 4.09 nM

**Q.** With `CC1(C)CCC(CN2CCN(c3ccc(C(=O)NS(=O)(=O)c4cccc(Cl)c4)c(Oc4ccc5[nH]ccc5c4)c3)CC2)=C(c2ccc(Cl)cc2)C1` [Example 34, 4-(4-{[2-(4-chlorophenyl)-4,4-dimethylcyclohex-1-en-1-yl]methyl}piperazin-1-yl)-N-[(3-chlorophenyl)sulfonyl]-2-(1H-indol-5-yloxy)benzamide] as the compound, how does the Ki read?
**A.** 5.14 nM

**Q.** For `CC1(C)CCC(CN2CCN(c3ccc(C(=O)NS(=O)(=O)c4cccc(F)c4)c(Oc4ccc5[nH]ccc5c4)c3)CC2)=C(c2ccc(Cl)cc2)C1` [Example 35, 4-(4-{[2-(4-chlorophenyl)-4,4-dimethylcyclohex-1-en-1-yl]methyl}piperazin-1-yl)-N-[(3-fluorophenyl)sulfonyl]-2-(1H-indol-5-yloxy)benzamide], which Ki is on record?
**A.** 8.84 nM

**Q.** `CC1(C)CCC(CN2CCN(c3ccc(C(=O)NS(=O)(=O)c4ccc5ccccc5c4)c(Oc4ccc5[nH]ccc5c4)c3)CC2)=C(c2ccc(Cl)cc2)C1` [Example 36, 4-(4-{[2-(4-chlorophenyl)-4,4-dimethylcyclohex-1-en-1-yl]methyl}piperazin-1-yl)-2-(1H-indol-5-yloxy)-N-(2-naphthylsulfonyl)benzamide] was tested. Which Ki did it give?
**A.** 31.7 nM

**Q.** For `CC1(C)CCC(CN2CCN(c3ccc(C(=O)NS(=O)(=O)c4cccc5cnccc45)c(Oc4ccc5[nH]ccc5c4)c3)CC2)=C(c2ccc(Cl)cc2)C1` [Example 37, 4-(4-{[2-(4-chlorophenyl)-4,4-dimethylcyclohex-1-en-1-yl]methyl}piperazin-1-yl)-2-(1H-indol-5-yloxy)-N-(isoquinolin-5-ylsulfonyl)benzamide], which Ki is on record?
**A.** 10.6 nM

**Q.** For `CC1(C)CCC(CN2CCN(c3ccc(C(=O)NS(=O)(=O)c4ccc(Cl)c([N+](=O)[O-])c4)c(Oc4cccc5[nH]ncc45)c3)CC2)=C(c2ccc(Cl)cc2)C1` [Example 38, N-[(4-chloro-3-nitrophenyl)sulfonyl]-4-(4-{[2-(4-chlorophenyl)-4,4-dimethylcyclohex-1-en-1-yl]methyl}piperazin-1-yl)-2-(1H-indazol-4-yloxy)benzamide], which Ki is on record?
**A.** 0.174 nM

From patent US8426422B2, “Apoptosis-inducing agents for the treatment of cancer and immune and autoimmune diseases” (Abbvie Inc., priority 2009, dated 2013)
